{
  "source": "patent EP2535710A1",
  "about": "“Method for determining the immune toxicity of a compound in vitro” (Rijksinstituut Voor Volksgezondheid En Milieu, priority 2011, dated 2012)",
  "key": {"[1]": {"system": "MAPK1", "test": "Phosphoproteome analysis of TBTO-treated cells (phosphoprotein and TiO2 phosphopeptide enrichment, nano-LC/MS/MS)", "type": "cell-based, Murine", "details": "whole protein; abundantly present in control cells; EL4 cells, 0.5 µM TBTO, 6 hr", "protocol": "(§1) Murine EL4 cells were cultured as described before.\n(§2) After exposure, cell suspensions were centrifuged at 1200 rpm for 10 min at 4 °C and the pellets were washed in 20 mL phosphate-buffered saline (PBS, pH 7.2) and centrifuged again. This procedure was repeated twice. The obtained cell pellet of each sample or control was then suspended in 5 mL of phosphoprotein lysis buffer prepared following the instructions of Phosphoprotein Purification Kit (Qiagen). This volume of the lysis buffer contained, in addition to the detergent CHAPS and Benzonase (10 µL), one tablet of protease inhibitor and Phosphatase Inhibitor Cocktail 1 (10 µL). The cell suspension was incubated on ice for 30 min and vortexed briefly and gently every 10 min. After that, the cell lysate was centrifuged at 10.000 rpm for 30 min at 4 °C. The supernatant was then taken and protein concentration determined according to Bradford. A total amount of 2.5 mg protein, at the concentration of 0.1 mg/mL, was loaded on the affinity column, which was pre-equilibrated with lysis buffer as recommended by the manufacturer. The chromatography was performed at room temperature. […] These enriched fractions were combined and the protein concentration was determined. […]"}, "[2]": {"system": "Matrin 3", "test": "Western blot analysis of TBTO-treated and control cell extracts", "type": "cell-based, Murine", "details": "Immunoblot, TBTO-treated cells versus control extract; EL4 cells, 0.5 µM TBTO, 6 hr; Fig. 1 b", "protocol": "as §1, §2"}, "[3]": {"system": "RPS6KB1 (Thr444/Ser447)", "test": "Western blot analysis of TBTO-treated and control cell extracts", "type": "cell-based, Murine", "details": "treated cells compared to control extract, EL4 cells, 0.5 µM TBTO, 6 hr, Figure 1a", "protocol": "as §1, §2"}, "[4]": {"system": "Murine EL4 cells", "details": "trypan blue dye exclusion, 0.5 µM TBTO, 37 °C for 6 hr, range in all experiments", "method": "Murine EL4 cells were cultured as described before [10]. Each treated sample or control contained 5×10^7 cells in a volume of 20 mL. A 1 mM TBTO stock solution was prepared in ethanol and 10 µl of this solution was added to each one of the cell suspension samples so that the final concentration of TBTO was 0.5 µM, whereas 10 µl of ethanol without TBTO was added to the control cells. Two independent replicate experiments for both treated sample and control were performed. Subsequently, cells were incubated at 37 °C for 6 hr."}, "[5]": {"system": "cells", "details": "TBTO concentrations higher than 1µM and incubation times longer than 6h; refs [10, 21]; cited from earlier work"}},
  "data": [
    {"smiles": "CCC[CH2][Sn]([CH2]CCC)([CH2]CCC)[O][Sn]([CH2]CCC)([CH2]CCC)[CH2]CCC", "note": "[TBTO, tributyltin oxide]", "values": [
      {"measurement": "detection of MAPK1 phosphoprotein in TBTO-treated cells", "setting": "[1]", "result": "not detected"},
      {"measurement": "band corresponding to Matrin 3 (ca. 125-130 kDa)", "setting": "[2]", "result": "not detectable"},
      {"measurement": "intensity signal of the band corresponding to Thr444/Ser447", "setting": "[3]", "result": "decrease in the intensity signal"},
      {"measurement": "Cell viability", "setting": "[4]", "result": "85-90%"},
      {"measurement": "apoptosis of cells", "setting": "[5]", "result": "caused apoptosis of cells"}
    ]}
  ]
}
